# Values quoted from earlier work, collected in patent publication US20200237731A1, “USE OF CLOXACILLIN TO INHIBIT/PREVENT BIOFILM FORMATION” (priority 2017, published 2020).
# How the values were obtained:
# S. aureus strain USA 300 = details: sub-MIC doses; Mlynek et al., 2016; cited from earlier work
# [1] = tested on: biofilm forming Staphylococcus aureus; details: compounds tested individually; Singh and Mishra, 2012; cited from earlier work
# Clostridium difficile = details: Vuotto et al., 2016; cited from earlier work
# S. aureus = details: sub-MIC doses; Mirani et al., 2011; cited from earlier work
# [2] = tested on: clinical isolates of S. aureus; details: in vitro; Tunney et al., 2007; cited from earlier work
molecule,measurement,setting,value
CC1(C)S[C@@H]2[C@H](NC(=O)[C@H](N)c3ccc(O)cc3)C(=O)N2[C@H]1C(=O)O [amoxicillin],attachment of S. aureus strain USA 300,S. aureus strain USA 300,induces attachment
CC1(C)S[C@@H]2[C@H](NC(=O)[C@H](N)c3ccccc3)C(=O)N2[C@H]1C(=O)O [ampicillin],preventive action against biofilm formation,[1],not sufficiently active
Cc1ncc([N+](=O)[O-])n1CCO [metronidazole],biofilm formation by Clostridium difficile,Clostridium difficile,increases biofilm formation
Cc1onc(-c2ccccc2)c1C(=O)N[C@@H]1C(=O)N2[C@@H]1SC(C)(C)[C@@H]2C(=O)O [oxacillin],biofilm formation by S. aureus,S. aureus,induces biofilm formation
CN[C@H](CC(C)C)C(=O)N[C@H]1C(=O)N[C@@H](CC(N)=O)C(=O)N[C@H]2C(=O)N[C@H]3C(=O)N[C@H](C(=O)N[C@H](C(=O)O)c4cc(O)cc(O)c4-c4cc3ccc4O)[C@H](O)c3ccc(c(Cl)c3)Oc3cc2cc(c3O[C@@H]2O[C@H](CO)[C@@H](O)[C@H](O)[C@H]2O[C@H]2C[C@](C)(N)[C@H](O)[C@H](C)O2)Oc2ccc(cc2Cl)[C@H]1O [vancomycin],biofilm formation by S. aureus,S. aureus,induces biofilm formation
gentamicin,effect of treatment of bone cement on biofilm formation,[2],ineffectiveness
penicillin,preventive action against biofilm formation,[1],not sufficiently active
